Assay results from DBAASP.
Converted amounts (≈) assume the structure as drawn. “And” between values parts separate entries of the source, which are not always exact repeats. Equal values may be shown once.

Legend:
Assay in all cases: ≥ marks a high value that may be exact or a test limit, other limits are often not marked, values filed in µg/mL are converted to µM
[1] = tested on: Staphylococcus aureus ATCC 25923
Escherichia coli BW25113 = tested on: Escherichia coli BW25113
[2] = tested on: Escherichia coli BW25113 ΔsbmA
[3] = tested on: Pseudomonas aeruginosa ATCC 27853
[4] = tested on: Acinetobacter baumannii ATCC 19606
[5] = tested on: Klebsiella pneumoniae ATCC 700603
[6] = tested on: Salmonella enterica subsp. enterica serovar Typhimurium ATCC 14028
Escherichia coli = tested on: Escherichia coli
[7] = tested on: Escherichia coli ATCC 25922
[8] = tested on: Pseudomonas syringae pv. syringae DSM 10604
[9] = tested on: Staphylococcus aureus 90857
[10] = tested on: Pectobacterium carotovorum subsp. carotovorum DSM 30168
[11] = tested on: Xanthomonas vesicatoria DSM 50861
[12] = tested on: Pseudomonas syringae pv. tomato DC3000
[13] = tested on: Pseudomonas corrugata DSM 7228
[14] = tested on: Clavibacter michiganensis subsp. michiganensis DSM 46294
[15] = tested on: Listeria monocytogenes LO28
[16] = tested on: Cronobacter sakazakii DPC 6440
Escherichia coli K91BK = tested on: Escherichia coli K91BK
[17] = tested on: Bacillus anthracis Sterne 34F2
[18] = tested on: Bacillus subtilis var. niger ATCC 9372

In the case of `CC[C@H](C)[C@H](NC(=O)[C@@H]1CCCN1C(=O)[C@@H]1CCCN1C(=O)[C@H](CCCN=C(N)N)NC(=O)[C@H](Cc1ccccc1)NC(=O)[C@@H](N)CCCN=C(N)N)C(=O)N[C@@H](CCCN=C(N)N)C(=O)N[C@@H](CCCN=C(N)N)C(=O)N1CCC[C@H]1C(=O)N1CCC[C@H]1C(=O)N[C@H](C(=O)N[C@@H](CCCN=C(N)N)C(=O)N1CCC[C@H]1C(=O)N1CCC[C@H]1C(=O)N[C@@H](Cc1ccccc1)C(=O)N[C@@H](Cc1ccc(O)cc1)C(=O)N1CCC[C@H]1C(=O)O)[C@@H](C)CC` [RFRPPIRRPPIRPPFYP], the MIC [1] was over 64 µM, the MIC (Escherichia coli BW25113) was 11.3 µM (≈ 24.5 µg/mL) and the MIC [2] was at least 64 µM. It also gave an MIC [3] of over 64 µM, an MIC [4] of 64 µM (≈ 138 µg/mL) and an MIC [5] of over 64 µM. The MIC [6] was 32 µM (≈ 69.2 µg/mL), the MIC (Escherichia coli) was 5.66 µM (≈ 12.2 µg/mL) and the MIC [7] was 16 µM (≈ 34.6 µg/mL).
`CC[C@H](C)[C@H](NC(=O)[C@H](CCCCN)NC(=O)[C@H](CCCCN)NC(=O)[C@H](CC(C)C)NC(=O)[C@H](CCCCN)NC(=O)[C@H](CCCN=C(N)N)NC(=O)[C@@H](N)CC(C)C)C(=O)N[C@@H](CC(C)C)C(=O)N[C@@H](CCCCN)C(=O)N[C@@H](CCCCN)C(=O)N[C@@H](CC(C)C)C(=O)N[C@@H](Cc1ccccc1)C(N)=O` [LRKLKKILKKLF] showed an MIC [8] of 0.164 µM (≈ 0.25 µg/mL), an MIC [9] of 6.25 µM (≈ 9.54 µg/mL) and an MIC [10] of 1.64 µM (≈ 2.5 µg/mL). It also gave an MIC [11] of 0.0654 µM (≈ 0.0999 µg/mL), an MIC [12] of 0.327 µM (≈ 0.5 µg/mL) and an MIC [13] of 0.164 µM (≈ 0.25 µg/mL). For the same compound, the MIC [14] was 0.164 µM (≈ 0.25 µg/mL).
`CC[C@H](C)[C@H](NC(=O)[C@@H](N)Cc1c[nH]c2ccccc12)C(=O)N[C@@H](CCC(N)=O)C(=O)N[C@@H](C)C(=O)N[C@@H](CCCCN)C(=O)N[C@H](C(=O)N[C@@H](CCCCN)C(=O)N[C@H](C(=O)N[C@H](C(=O)N1CCC[C@H]1C(=O)N[C@@H](Cc1ccc(O)cc1)C(=O)N[C@H](C(=O)N[C@@H](CCCN=C(N)N)C(=O)N[C@@H](Cc1ccc(O)cc1)C(=O)N[C@@H](CC(C)C)C(=O)O)C(C)C)[C@@H](C)CC)C(C)C)[C@@H](C)O` [WIQAKTKVIPYVRYL] gave an MIC [15] of 9.77 µM (≈ 18.3 µg/mL) and an MIC [16] of at least 39.1 µM.
With `CC[C@H](C)[C@H](NC(=O)[C@@H](NC(=O)[C@H](CCCCN)NC(=O)[C@H](CCCCN)NC(=O)[C@@H](NC(=O)[C@@H](NC(=O)[C@H](CCCCN)NC(=O)[C@H](C)NC(=O)[C@H](CCCCN)NC(=O)[C@H](CCCCN)NC(=O)[C@H](CCCCN)NC(=O)[C@@H](N)CCCN=C(N)N)[C@@H](C)CC)[C@@H](C)CC)[C@@H](C)CC)C(N)=O` [RKKKAKIIKKII] the MIC [8] was 0.682 µM (≈ 0.999 µg/mL), the MIC [9] was at least 62.5 µM and the MIC [10] was 6.82 µM (≈ 9.99 µg/mL). The MIC [11] was 6.82 µM (≈ 9.99 µg/mL), the MIC [12] was 6.82 µM (≈ 9.99 µg/mL) and the MIC [13] was 6.82 µM (≈ 9.99 µg/mL). The MIC [14] was 6.82 µM (≈ 9.99 µg/mL).
`CC[C@H](C)[C@H](NC(=O)[C@@H]1CCCN1C(=O)[C@@H]1CCCN1C(=O)[C@H](CCCN=C(N)N)NC(=O)[C@H](Cc1ccccc1)NC(=O)[C@@H](N)CCCN=C(N)N)C(=O)N[C@@H](CCCN=C(N)N)C(=O)N[C@@H](CCCN=C(N)N)C(=O)N1CCC[C@H]1C(=O)N1CCC[C@H]1C(=O)N[C@H](C(=O)N[C@@H](CCCN=C(N)N)C(=O)N1CCC[C@H]1C(=O)N1CCC[C@H]1C(=O)N[C@@H](Cc1ccccc1)C(=O)N[C@@H](Cc1ccc(O)cc1)C(=O)N1CCC[C@H]1C(=O)N1CCC[C@H]1C(=O)N[C@@H](Cc1ccccc1)C(=O)O)[C@@H](C)CC` [RFRPPIRRPPIRPPFYPPF] was tested, and the MIC [1] was over 64 µM, the MIC (Escherichia coli BW25113) was 8 µM (≈ 19.3 µg/mL) and the MIC [2] was at least 32 µM. For the same compound, the MIC [3] was over 64 µM, the MIC [4] was 32 µM (≈ 77 µg/mL) and the MIC [5] was over 64 µM. The MIC [6] was 32 µM (≈ 77 µg/mL) and the MIC [7] was 12 µM (≈ 28.9 µg/mL).
In the case of `CC[C@H](C)[C@H](NC(=O)[C@H](CCCN=C(N)N)NC(=O)[C@@H](N)Cc1c[nH]c2ccccc12)C(=O)N[C@@H](CCCN=C(N)N)C(=O)N1CCC[C@H]1C(=O)N[C@@H](CCCN=C(N)N)C(=O)N1CCC[C@H]1C(=O)N1CCC[C@H]1C(=O)N[C@@H](CCCN=C(N)N)C(=O)N[C@@H](CC(C)C)C(=O)N1CCC[C@H]1C(=O)N[C@@H](CCCN=C(N)N)C(=O)N[C@@H](Cc1c[nH]c2ccccc12)C(=O)N[C@@H](CCCN=C(N)N)C(=O)N1CCC[C@H]1C(=O)N[C@@H](CCCN=C(N)N)C(=O)O` [WRIRPRPPRLPRWRPR], the MIC [1] was over 64 µM, the MIC (Escherichia coli BW25113) was 2 µM (≈ 4.39 µg/mL) and the MIC [2] was 16 µM and ≥ 32 µM. For the same compound, the MIC [3] was over 64 µM, the MIC [4] was 32 µM (≈ 70.3 µg/mL) and the MIC [5] was 8 µM (≈ 17.6 µg/mL). The MIC [7] was 1.5 µM and 2 µM.
`CC[C@H](C)[C@H](NC(=O)[C@H](CCCCN)NC(=O)[C@H](CO)NC(=O)[C@H](Cc1ccccc1)NC(=O)[C@H](CC(C)C)NC(=O)[C@H](CCCCN)NC(=O)[C@H](CCC(=O)O)NC(=O)[C@H](CC(C)C)NC(=O)[C@H](CCCN=C(N)N)NC(=O)[C@H](CCCCN)NC(=O)[C@H](Cc1ccccc1)NC(C)=O)C(=O)N[C@@H](Cc1c[nH]c2ccccc12)C(=O)N[C@@H](CC(N)=O)C(=O)N[C@@H](Cc1c[nH]c2ccccc12)C(=O)N[C@@H](CCCCN)C(N)=O` [FKRLEKLFSKIWNWK] showed an MIC (Escherichia coli K91BK) of at least 100 µM, an MIC [17] of 14.9 µM (≈ 30.8 µg/mL) and an MIC [18] of 6.25 µM (≈ 12.9 µg/mL).
For `CC[C@H](C)[C@H](NC(=O)[C@@H](N)Cc1c[nH]c2ccccc12)C(=O)N[C@@H](CCC(N)=O)C(=O)N1CCC[C@H]1C(=O)N[C@@H](CCCCN)C(=O)N[C@H](C(=O)N[C@@H](CCCCN)C(=O)N[C@H](C(=O)N[C@H](C(=O)N1CCC[C@H]1C(=O)N[C@@H](Cc1ccc(O)cc1)C(=O)N[C@H](C(=O)N[C@@H](CCCN=C(N)N)C(=O)N[C@@H](Cc1ccc(O)cc1)C(=O)N[C@@H](CC(C)C)C(=O)O)C(C)C)[C@@H](C)CC)C(C)C)[C@@H](C)O` [WIQPKTKVIPYVRYL], the MIC [15] was at least 39.1 µM and the MIC [16] was at least 78.1 µM.
`CC[C@H](C)[C@H](NC(=O)[C@@H](N)Cc1c[nH]c2ccccc12)C(=O)N[C@@H](CCC(N)=O)C(=O)N1CCC[C@H]1C(=O)N[C@@H](C)C(=O)N[C@H](C(=O)N[C@@H](CCCCN)C(=O)N[C@H](C(=O)N[C@H](C(=O)N1CCC[C@H]1C(=O)N[C@@H](Cc1ccc(O)cc1)C(=O)N[C@H](C(=O)N[C@@H](C)C(=O)N[C@@H](Cc1ccc(O)cc1)C(=O)N[C@@H](CC(C)C)C(=O)O)C(C)C)[C@@H](C)CC)C(C)C)[C@@H](C)O` [WIQPATKVIPYVAYL] showed an MIC [15] of at least 156 µM and an MIC [16] of at least 625 µM.
For `CC[C@H](C)[C@H](NC(=O)[C@@H](N)Cc1c[nH]c2ccccc12)C(=O)N[C@@H](CCC(N)=O)C(=O)N1CCC[C@H]1C(=O)N[C@@H](CCCCN)C(=O)N[C@@H](C)C(=O)N[C@@H](CCCCN)C(=O)N[C@H](C(=O)N[C@H](C(=O)N1CCC[C@H]1C(=O)N[C@@H](Cc1ccc(O)cc1)C(=O)N[C@H](C(=O)N[C@@H](CCCN=C(N)N)C(=O)N[C@@H](Cc1ccc(O)cc1)C(=O)N[C@@H](CC(C)C)C(=O)O)C(C)C)[C@@H](C)CC)C(C)C` [WIQPKAKVIPYVRYL], the MIC [15] was 19.5 µM (≈ 36.6 µg/mL) and the MIC [16] was at least 78.1 µM.
Compound `CC[C@H](C)[C@H](NC(=O)[C@H](CC(C)C)NC(=O)[C@H](CCCN=C(N)N)NC(=O)[C@H](CCCN=C(N)N)NC(=O)[C@H](CC(C)C)NC(=O)[C@@H](NC(=O)[C@H](CCCN=C(N)N)NC(=O)[C@H](CCCN=C(N)N)NC(=O)[C@@H](NC(=O)[C@@H](NC(=O)[C@H](CCCN=C(N)N)NC(=O)[C@@H](N)CC(C)C)[C@@H](C)CC)[C@@H](C)CC)[C@@H](C)CC)C(N)=O` [LRIIRRILRRLI] has an MIC [8] of 1.57 µM (≈ 2.5 µg/mL), an MIC [9] of 25 µM (≈ 39.8 µg/mL) and an MIC [10] of 1.57 µM (≈ 2.5 µg/mL). The MIC [11] was 0.628 µM (≈ 0.999 µg/mL), the MIC [12] was 0.628 µM (≈ 0.999 µg/mL) and the MIC [13] was 1.57 µM (≈ 2.5 µg/mL). It also gave an MIC [14] of 1.57 µM (≈ 2.5 µg/mL).
